Data from paper PMC7218127, “Cytotoxic and Optically Active Pyrisulfoxins From the Endophytic Streptomyces albolongus EA12432” (Frontiers in Chemistry, 2020).

Tests used:
[1] = test system: HCT-116 human colorectal cancer cell line; experiment: SRB cytotoxicity assay; settings: read-out: Cytotoxicity IC50, HCT-116; SRB method, 72 h (Table 5); NA = no activity
[2] = test system: HCT-116 human colon carcinoma cell line; experiment: CellTiter-Glo (CTG) cytotoxic assay; settings: HCT-116, 72 h, read-out: Cytotoxicity IC50, HCT-116
[3] = test system: MKN-45 gastric cancer cell line; experiment: CellTiter-Glo (CTG) cytotoxic assay; settings: Homo sapiens, MKN-45, 72 h, read-out: Cytotoxicity IC50, MKN-45
[4] = test system: MV-4-11 leukemia cell line; experiment: CellTiter-Glo (CTG) cytotoxic assay; settings: Homo sapiens, MV4-11, 72 h, read-out: Cytotoxicity IC50, MV-4-11
[5] = CellTiter-Glo (CTG) cytotoxic assay, normal cells; settings: human, L02 normal liver cells
[6] = test system: A431 epidermoid carcinoma cell line; experiment: CellTiter-Glo (CTG) cytotoxic assay; settings: Homo sapiens, A-431, 72 h, read-out: Cytotoxicity IC50, A431
[7] = test system: Karpass299 T cell lymphoma cell line; experiment: CellTiter-Glo (CTG) cytotoxic assay; settings: Homo sapiens, 72 h, read-out: Cytotoxicity IC50, Karpass299
[8] = test system: MDA-MB-231 breast cancer cell line; experiment: CellTiter-Glo (CTG) cytotoxic assay; settings: Homo sapiens, MDA-MB-231, 72 h, read-out: Cytotoxicity IC50, MDA-MB-231
[9] = test system: MCF-7 human breast cancer cell line; experiment: MTT cytotoxicity assay; settings: read-out: Cytotoxicity IC50, MCF-7; MTT method, 72 h (Table 5); NA = no activity
[10] = test system: SPC-A1 lung cancer cell line; experiment: CellTiter-Glo (CTG) cytotoxic assay; settings: Homo sapiens, SPCA1, 72 h, read-out: Cytotoxicity IC50, SPC-A1
[11] = test system: N87 gastric carcinoma cell line; experiment: CellTiter-Glo (CTG) cytotoxic assay; settings: Homo sapiens, 72 h, read-out: Cytotoxicity IC50, N87
[12] = test system: HUCCT1 ductal carcinoma cell line; experiment: CellTiter-Glo (CTG) cytotoxic assay; settings: Homo sapiens, HuCCT-1, 72 h, read-out: Cytotoxicity IC50, HUCCT1
[13] = test system: HCC1954 ductal carcinoma cell line; experiment: CellTiter-Glo (CTG) cytotoxic assay; settings: Homo sapiens, HCC1954, 72 h, read-out: Cytotoxicity IC50, HCC1954
[14] = test system: H1299 lung cancer cell line; experiment: CellTiter-Glo (CTG) cytotoxic assay; settings: Homo sapiens, NCI-H1299, 72 h, read-out: Cytotoxicity IC50, H1299
[15] = test system: BXPC-3 human pancreatic cancer cell line; experiment: SRB cytotoxicity assay; settings: read-out: Cytotoxicity IC50, BXPC-3; SRB method, 72 h (Table 5)
[16] = test system: DU145 prostate cancer cell line; experiment: CellTiter-Glo (CTG) cytotoxic assay; settings: Homo sapiens, DU-145, 72 h, read-out: Cytotoxicity IC50, DU145
[17] = test system: B16F10 highly metastatic mouse melanoma cell line; experiment: CellTiter-Glo (CTG) cytotoxic assay; settings: B16-F10, 72 h, read-out: Cytotoxicity IC50, B16F10
[18] = test system: BT474 breast cancer cell line; experiment: CellTiter-Glo (CTG) cytotoxic assay; settings: Homo sapiens, BT-474, 72 h, read-out: Cytotoxicity IC50, BT474
[19] = test system: Hep3B liver cancer cell line; experiment: CellTiter-Glo (CTG) cytotoxic assay; settings: Homo sapiens, 72 h, read-out: Cytotoxicity IC50, Hep3B
[20] = test system: A549 lung cancer cell line; experiment: CellTiter-Glo (CTG) cytotoxic assay; settings: Homo sapiens, A549, 72 h, read-out: Cytotoxicity IC50, A549
[21] = CellTiter-Glo (CTG) cytotoxic assay, normal cells; settings: human, HEK-293F cells
[22] = test system: U87 glioblastoma cell line; experiment: CellTiter-Glo (CTG) cytotoxic assay; settings: Homo sapiens, 72 h, read-out: Cytotoxicity IC50, U87
[23] = test system: 143B bone osteosarcoma cell line; experiment: CellTiter-Glo (CTG) cytotoxic assay; settings: Homo sapiens, 72 h, read-out: Cytotoxicity IC50, 143B
[24] = test system: H1975 lung cancer cell line; experiment: CellTiter-Glo (CTG) cytotoxic assay; settings: Homo sapiens, NCI-H1975, 72 h, read-out: Cytotoxicity IC50, H1975
HL-60 leukemia cell line = experiment: CellTiter-Glo (CTG) cytotoxic assay; settings: Homo sapiens, HL-60, 72 h, read-out: Cytotoxicity IC50, HL60
[25] = test system: MDA-MB-468 breast cancer cell line; experiment: CellTiter-Glo (CTG) cytotoxic assay; settings: Homo sapiens, MDA-MB-468, 72 h, read-out: Cytotoxicity IC50, MDA-MB-468
[26] = test system: A673 rhabdomyoma cell line; experiment: CellTiter-Glo (CTG) cytotoxic assay; settings: Homo sapiens, A673, 72 h, read-out: Cytotoxicity IC50, A673
Jurkat cell line = experiment: MTT cytotoxicity assay; settings: read-out: Cytotoxicity IC50, Jurkat; MTT method, 72 h (Table 5)
[27] = test system: MCF-7 breast cancer cell line; experiment: CellTiter-Glo (CTG) cytotoxic assay; settings: Homo sapiens, MCF7, 72 h, read-out: Cytotoxicity IC50, MCF-7
K562 leukemia cell line = experiment: CellTiter-Glo (CTG) cytotoxic assay; settings: Homo sapiens, K562, 72 h, read-out: Cytotoxicity IC50, K562
K562 cell line = experiment: MTT cytotoxicity assay; settings: read-out: Cytotoxicity IC50, K562; MTT method, 72 h (Table 5); NA = no activity
[28] = test system: H2228 lung cancer cell line; experiment: CellTiter-Glo (CTG) cytotoxic assay; settings: Homo sapiens, NCI-H2228, 72 h, read-out: Cytotoxicity IC50, H2228
[29] = test system: P6C human colorectal cancer cell line; experiment: MTT cytotoxicity assay; settings: read-out: Cytotoxicity IC50, P6C; MTT method, 72 h (Table 5)
[30] = test system: HT-29 human colorectal cancer cell line; experiment: SRB cytotoxicity assay; settings: read-out: Cytotoxicity IC50, HT-29; SRB method, 72 h (Table 5)
[31] = test system: U251 glioblastoma cell line; experiment: CellTiter-Glo (CTG) cytotoxic assay; settings: Homo sapiens, U-251, 72 h, read-out: Cytotoxicity IC50, U251
[32] = test system: other 26 cell lines (Table 4 without N87); experiment: CTG cytotoxic assay, summary over the other cell lines of Table 4; settings: read-out: IC50 against other 26 cell lines
cancer cells = experiment: Cytotoxicity (MTT, SRB, CTG), summary over all cancer cells; settings: read-out: IC50 values against cancer cells, range
[33] = test system: HCT-116, HT-29, P6C and BXPC-3 cell lines; experiment: SRB/MTT cytotoxicity assays, summary over CRC and pancreatic lines; settings: Homo sapiens, read-out: IC50 values against HCT-116, HT-29, P6C and BXPC-3, range
26 cancer cell lines = experiment: CTG cytotoxic assay, summary over the panel; settings: read-out: IC50 values against 26 cancer cell lines, range

SMILES | IC50 [1] [nM] | IC50 [2] [nM] | IC50 [3] [nM] | IC50 [4] [nM] | IC50 at 72 h [5] [nM] | IC50 [6] [nM] | IC50 [7] [nM] | IC50 [8] [nM] | IC50 [9] [nM] | IC50 [10] [nM] | IC50 [11] [nM] | IC50 [12] [nM] | IC50 [13] [nM] | IC50 [14] [nM] | IC50 [15] [nM] | IC50 [16] [nM] | IC50 [17] [nM] | IC50 [18] [nM] | IC50 at 72 h [21] [nM] | IC50 (cancer cells) [nM] | further results
COc1cc(-c2ccccn2)nc([C@H]2NC(=O)c3ccccc3N2)c1SC [R(–)-14, R-Pyrisulfoxin F] | 14700 |  |  |  |  |  |  |  |  |  |  |  |  |  |  |  |  |  |  |  | 
COc1cccc2c1C(=O)c1c(O)c3c(c(O)c1C2=O)C[C@@](O)(C(=O)CO)C[C@@H]3O[C@H]1C[C@H](N)[C@H](O)[C@H](C)O1 [Adriamycin, reference compound] | 210 | 100 | 190 | 160 | 96 | 170 | 390 | 180 | 860 | 190 | 120 | 51 | 48 | 490 | 32 | 48 | 15 | 1940 | 50 |  | IC50 [19]: 17600 nM; IC50 [20]: 99 nM; IC50 [22]: 120 nM; IC50 [23]: 95 nM; IC50 [24]: 91 nM; IC50 (HL-60 leukemia cell line): 210 nM; IC50 [25]: > 100000 nM; IC50 [26]: 130 nM; IC50 (Jurkat cell line): 440 nM; IC50 [27]: 100 nM; IC50 (K562 leukemia cell line): 18 nM; IC50 (K562 cell line): 250 nM; IC50 [28]: 97 nM; IC50 [29]: 650 nM; IC50 [30]: 160 nM; IC50 [31]: 190 nM
COc1cc(-c2ccccn2)nc(CO)c1[S+](C)[O-] (stereo not shown) [compound 1, 4-methoxy-5-methylsulfinyl-2,2′-bipyridine-6-methanol] |  |  |  |  | > 100000 |  |  |  |  |  | 8090 |  |  |  |  |  |  |  | > 100000 | 48 to 9710 | IC50 [32]: > 100000 nM
COc1cc(-c2ccccn2)nc(/C=N/O)c1[S+](C)[O-] (racemic) [(±)-3, pyrisulfoxin A] | 730 |  |  |  |  |  |  |  |  |  |  |  |  |  | 1600 |  |  |  |  | 48 to 9710 | IC50 (K562 cell line): 13000 nM; IC50 [33]: 48 to 3200 nM; IC50 [29]: 3200 nM; IC50 [30]: 830 nM
CC(=O)NCc1nc(-c2ccccn2)cc(O)c1[S+](C)[O-] (racemic) [(±)-2, N-[(4-hydroxy-5-methylsulfinyl-2,2′-bipyridin-6-yl)methyl] acetamide] |  | 2450 | 4880 | 9710 | > 100000 | 4630 | 3130 | 920 |  | 7830 | 7460 | 7910 | 2140 | 7380 |  | 4510 | 7740 | 8240 | > 100000 | 48 to 9710 | IC50 (26 cancer cell lines): 920 to 9710 nM; IC50 [19]: 4420 nM; IC50 [20]: 4180 nM; IC50 [22]: 3670 nM; IC50 [23]: 8390 nM; IC50 [24]: 2550 nM; IC50 (HL-60 leukemia cell line): 3180 nM; IC50 [25]: 1310 nM; IC50 [26]: 6900 nM; IC50 [27]: 5780 nM; IC50 (K562 leukemia cell line): 5920 nM; IC50 [28]: 8050 nM; IC50 [31]: 4790 nM
COc1cc(-c2ccccn2)nc([C@@H]2NC(=O)c3ccccc3N2)c1SC [S(+)-14, S-Pyrisulfoxin F] |  |  |  |  |  |  |  |  | 10400 |  |  |  |  |  |  |  |  |  |  |  | 
